Laboratory results: patent US11987586B1 (TAKEDA PHARMACEUTICAL COMPANY LIMITED, priority 2022, dated 2024)

Target: T1, human OX2 receptor (Homo sapiens, UniProt O43614)
T1 construct: expressed in transfected cells
T1 sequence (O43614 1-444): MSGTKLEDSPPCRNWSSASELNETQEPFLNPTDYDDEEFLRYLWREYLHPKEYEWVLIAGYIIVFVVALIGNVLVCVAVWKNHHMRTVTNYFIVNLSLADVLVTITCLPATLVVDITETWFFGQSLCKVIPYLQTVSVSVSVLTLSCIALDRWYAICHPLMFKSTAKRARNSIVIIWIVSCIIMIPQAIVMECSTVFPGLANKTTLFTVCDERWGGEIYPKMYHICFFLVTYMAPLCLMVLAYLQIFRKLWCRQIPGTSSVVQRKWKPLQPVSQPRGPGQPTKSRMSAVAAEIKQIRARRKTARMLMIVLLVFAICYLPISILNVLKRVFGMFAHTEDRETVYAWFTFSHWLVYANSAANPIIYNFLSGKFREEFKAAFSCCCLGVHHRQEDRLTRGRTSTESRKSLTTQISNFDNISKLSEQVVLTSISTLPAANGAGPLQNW
Assay: Measurement of orexin type 2 receptor agonist activity (calcium fluorescence, Fluo-4, FDSS)
Assay type: cell-based
Conditions: 3 uM test compound; CHO cells expressing human OX2 receptor; DMSO = 0%, 10 nM orexin A (human) = 100%
Method in brief: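 Agonist activity (%) was normalised to the response to 10 nM final human orexin A (100%) and to the DMSO vehicle (0%). The response was measured as the Fluo-4 calcium signal, read kinetically over 1 min 40 s after compound addition to Fluo-4/probenecid-loaded stable CHO-K1 clones expressing human OX2 (aa 1-444).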

Point of comparison: `O=C1N(c2noc3cccc(-c4c(F)cc(F)cc4F)c23)CC[C@H]2N1C[C@@H](NS(=O)(=O)CF)C2(F)F` [Example 203, N-{(4aR,6R)-5,5-difluoro-1-oxo-2-[4-(2,4,6-trifluorophenyl)-1,2-benzoxazol-3-yl]octahydropyrrolo[1,2-c]pyrimidin-6-yl}-1-fluoromethanesulfonamide], “OX2R agonist activity (3 uM, %)” value 114%. Against it:
- Cc1cc2onc(N3C[C@H]4N(C[C@@H](NS(C)(=O)=O)C4(F)F)C3=O)c2c(-c2c(F)cccc2F)c1F [Example 186, N-{(6R,7aR)-2-[4-(2,6-difluorophenyl)-5-fluoro-6-methyl-1,2-benzoxazol-3-yl]-7,7-difluoro-3-oxohexahydro-1H-pyrrolo[1,2-c]imidazol-6-yl}methanesulfonamide] — lower, 101%
- CCOc1cc(-c2c(F)cc(F)cc2F)c2c(-n3cc4n(c3=O)C[C@@H](NS(C)(=O)=O)C4(F)F)noc2c1 [Example 189, N-{(6R)-2-[6-ethoxy-4-(2,4,6-trifluorophenyl)-1,2-benzoxazol-3-yl]-7,7-difluoro-3-oxo-2,5,6,7-tetrahydro-3H-pyrrolo[1,2-c]imidazol-6-yl}methanesulfonamide] — lower, 103%
- CCS(=O)(=O)N[C@@H]1Cn2c(cn(-c3noc4nc(C)cc(-c5c(F)cc(F)cc5F)c34)c2=O)C1(F)F [Example 190, N-{(6R)-7,7-difluoro-2-[6-methyl-4-(2,4,6-trifluorophenyl)[1,2]oxazolo[5,4-b]pyridin-3-yl]-3-oxo-2,5,6,7-tetrahydro-3H-pyrrolo[1,2-c]imidazol-6-yl}ethanesulfonamide] — lower, 96%
- Cc1cc2onc(N3C[C@H]4N(C[C@@H](NS(C)(=O)=O)C4(F)F)C3=O)c2c(-c2c(F)cc(F)cc2F)n1 [Example 191, N-{(6R,7aR)-7,7-difluoro-2-[6-methyl-4-(2,4,6-trifluorophenyl)[1,2]oxazolo[4,5-c]pyridin-3-yl]-3-oxohexahydro-1H-pyrrolo[1,2-c]imidazol-6-yl}methanesulfonamide] — lower, 98%
- CS(=O)(=O)N[C@@H]1CN2C(=O)N(c3noc4cc(OC(F)F)cc(-c5c(F)cc(F)cc5F)c34)C[C@@H]2C1(F)F [Example 193, N-{(6R,7aR)-2-[6-(difluoromethoxy)-4-(2,4,6-trifluorophenyl)-1,2-benzoxazol-3-yl]-7,7-difluoro-3-oxohexahydro-1H-pyrrolo[1,2-c]imidazol-6-yl}methanesulfonamide] — lower, 103%
- CCOc1cc(-c2c(F)cccc2F)c2c(-n3cc4n(c3=O)C[C@@H](NS(C)(=O)=O)C4(F)F)noc2c1 [Example 194, N-{(6R)-2-[4-(2,6-difluorophenyl)-6-ethoxy-1,2-benzoxazol-3-yl]-7,7-difluoro-3-oxo-2,5,6,7-tetrahydro-3H-pyrrolo[1,2-c]imidazol-6-yl}methanesulfonamide] — lower, 92%
- CS(=O)(=O)N[C@H]1C[C@H]2CCN(c3noc4cccc(-c5c(F)cc(F)cc5F)c34)C(=O)N2C1 [Example 195] — lower, 106%
- Cc1cc2onc(-n3cc4n(c3=O)C[C@@H](NS(C)(=O)=O)C4(F)F)c2c(-c2c(F)cccc2F)n1 [Example 196, N-{(6R)-2-[4-(2,6-difluorophenyl)-6-methyl[1,2]oxazolo[4,5-c]pyridin-3-yl]-7,7-difluoro-3-oxo-2,5,6,7-tetrahydro-3H-pyrrolo[1,2-c]imidazol-6-yl}methanesulfonamide] — lower, 106%
- CS(=O)(=O)N[C@@H]1Cn2c(cn(-c3noc4nc(C5CC5)cc(-c5c(F)cccc5F)c34)c2=O)C1(F)F [Example 197, N-{(6R)-2-[6-cyclopropyl-4-(2,6-difluorophenyl)[1,2]oxazolo[5,4-b]pyridin-3-yl]-7,7-difluoro-3-oxo-2,5,6,7-tetrahydro-3H-pyrrolo[1,2-c]imidazol-6-yl}methanesulfonamide] — higher, 115%
- CCS(=O)(=O)N[C@@H]1Cn2c(cn(-c3noc4cc(C)nc(-c5c(F)cc(F)cc5F)c34)c2=O)C1(F)F [Example 198, N-{(6R)-7,7-difluoro-2-[6-methyl-4-(2,4,6-trifluorophenyl)[1,2]oxazolo[4,5-c]pyridin-3-yl]-3-oxo-2,5,6,7-tetrahydro-3H-pyrrolo[1,2-c]imidazol-6-yl}ethanesulfonamide] — lower, 112%
- CCOc1cc(-c2c(F)cccc2F)c2c(N3CC[C@H]4N(C[C@@H](NS(C)(=O)=O)C4(F)F)C3=O)noc2c1 [Example 199, N-{(4aR,6R)-2-[4-(2,6-difluorophenyl)-6-ethoxy-1,2-benzoxazol-3-yl]-5,5-difluoro-1-oxooctahydropyrrolo[1,2-c]pyrimidin-6-yl}methanesulfonamide] — lower, 105%
- CS(=O)(=O)N[C@@H]1CN2C(=O)N(c3noc4cc(C(F)F)cc(-c5c(F)cc(F)cc5F)c34)CC[C@@H]2C1(F)F [Example 200, N-{(4aR,6R)-2-[6-(difluoromethyl)-4-(2,4,6-trifluorophenyl)-1,2-benzoxazol-3-yl]-5,5-difluoro-1-oxooctahydropyrrolo[1,2-c]pyrimidin-6-yl}methanesulfonamide] — higher, 122%
- Cc1cc2onc(-n3cc4n(c3=O)C[C@@H](NS(=O)(=O)CF)C4(F)F)c2c(-c2c(F)cc(F)cc2F)n1 [Example 201, N-{(6R)-7,7-difluoro-2-[6-methyl-4-(2,4,6-trifluorophenyl)[1,2]oxazolo[4,5-c]pyridin-3-yl]-3-oxo-2,5,6,7-tetrahydro-3H-pyrrolo[1,2-c]imidazol-6-yl}-1-fluoromethanesulfonamide] — the same, 114%
- CCOc1cc2onc(N3CC[C@H]4N(C[C@@H](NS(C)(=O)=O)C4(F)F)C3=O)c2c(-c2c(F)cc(F)cc2F)c1F [Example 202, N-{(4aR,6R)-2-[6-ethoxy-5-fluoro-4-(2,4,6-trifluorophenyl)-1,2-benzoxazol-3-yl]-5,5-difluoro-1-oxooctahydropyrrolo[1,2-c]pyrimidin-6-yl}methanesulfonamide] — lower, 99%
- CCS(=O)(=O)N[C@@H]1CN2C(=O)N(c3noc4ccc(F)c(-c5c(F)cc(F)cc5F)c34)CC[C@@H]2C1(F)F [Example 204, N-{(4aR,6R)-5,5-difluoro-2-[5-fluoro-4-(2,4,6-trifluorophenyl)-1,2-benzoxazol-3-yl]-1-oxooctahydropyrrolo[1,2-c]pyrimidin-6-yl}ethanesulfonamide] — lower, 109%
- CCS(=O)(=O)N[C@H]1C[C@H]2CCN(c3noc4cccc(-c5c(F)cc(F)cc5F)c34)C(=O)N2C1 [Example 205, N-{(4aR,6S)-1-oxo-2-[4-(2,4,6-trifluorophenyl)-1,2-benzoxazol-3-yl]octahydropyrrolo[1,2-c]pyrimidin-6-yl}ethanesulfonamide] — lower, 107%
- CS(=O)(=O)N[C@@H]1CN2C(=O)N(c3noc4cccc(-c5c(F)cccc5F)c34)CC[C@@H]2C1(F)F [Example 206, N-{(4aR,6R)-2-[4-(2,6-difluorophenyl)-1,2-benzoxazol-3-yl]-5,5-difluoro-1-oxooctahydropyrrolo[1,2-c]pyrimidin-6-yl}methanesulfonamide] — lower, 110%
- O=C1N(c2noc3ccc(F)c(-c4c(F)cc(F)cc4F)c23)CC[C@H]2N1C[C@@H](NS(=O)(=O)CF)C2(F)F [Example 207, N-{(4aR,6R)-5,5-difluoro-2-[5-fluoro-4-(2,4,6-trifluorophenyl)-1,2-benzoxazol-3-yl]-1-oxooctahydropyrrolo[1,2-c]pyrimidin-6-yl}-1-fluoromethanesulfonamide] — lower, 113%
- CS(=O)(=O)N[C@@H]1CN2C(=O)N(c3noc4cc(F)cc(-c5c(F)cc(F)cc5F)c34)CC[C@@H]2C1(F)F [Example 208, N-{(4aR,6R)-5,5-difluoro-2-[6-fluoro-4-(2,4,6-trifluorophenyl)-1,2-benzoxazol-3-yl]-1-oxooctahydropyrrolo[1,2-c]pyrimidin-6-yl}methanesulfonamide] — lower, 102%
- Cc1cc(-c2c(F)cccc2F)c2c(N3CC[C@H]4N(C[C@@H](NS(C)(=O)=O)C4(F)F)C3=O)noc2c1 [Example 209, N-{(4aR,6R)-2-[4-(2,6-difluorophenyl)-6-methyl-1,2-benzoxazol-3-yl]-5,5-difluoro-1-oxooctahydropyrrolo[1,2-c]pyrimidin-6-yl}methanesulfonamide] — lower, 96%
- COCc1cc(-c2c(F)cc(F)cc2F)c2c(N3CC[C@H]4N(C[C@@H](NS(C)(=O)=O)C4(F)F)C3=O)noc2c1 [Example 210, N-{(4aR,6R)-5,5-difluoro-2-[6-(methoxymethyl)-4-(2,4,6-trifluorophenyl)-1,2-benzoxazol-3-yl]-1-oxooctahydropyrrolo[1,2-c]pyrimidin-6-yl}methanesulfonamide] — lower, 94%
- CCS(=O)(=O)N[C@@H]1Cn2c(cn(-c3noc4nc(C5CC5)cc(-c5c(F)cccc5F)c34)c2=O)C1(F)F [Example 211, N-{(6R)-2-[6-cyclopropyl-4-(2,6-difluorophenyl)[1,2]oxazolo[5,4-b]pyridin-3-yl]-7,7-difluoro-3-oxo-2,5,6,7-tetrahydro-3H-pyrrolo[1,2-c]imidazol-6-yl}ethanesulfonamide] — lower, 108%
